{"source": "paper PMC3805977", "about": "(Scientific Reports, 2013)", "test_system": "HIV-1", "experiment": "HIV-1 inhibition assay, isolates not separated", "assay_type": "cell-based", "settings": "across HIV-1 clades; effect augmented with streptavidin conjugation"}
{"sequence": "SSCSVRSSCRLYYSC", "values": [{"measurement": "HIV-1 inhibitory activity, in words", "result": "did not show any HIV-1 inhibition"}]}
